Drawing on ChEMBL document CHEMBL1909046, “DrugMatrix in vitro pharmacology data”, this text covers IC50 and Ki for five compounds.

For one experiment, the target named is D(3) dopamine receptor (Homo sapiens, UniProt P35462). Description: DRUGMATRIX: Dopamine D3 radioligand binding (ligand: [3H] Spiperone). In kind it is cell membranes, CHO, Membrane.
Experiment [1] has as its target Prostaglandin G/H synthase 1 (Homo sapiens, UniProt P23219). Description: biochemical. In kind it is tissue-based, Platelet. Particulars: platelet.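 Further: inhibition of COX-1 enzyme activity, with arachidonic acid supplied as substrate; in other assays of this panel Not Active means under 50% inhibition at 10 µM.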
The target in experiment [2] is Platelet-activating factor receptor (Homo sapiens, UniProt P25105). The experiment is described as follows: biochemical. The format is tissue-based. Conditions: platelet. Further: in other assays of this panel Not Active means under 50% inhibition at 10 µM.
A short description of experiment [3]: DRUGMATRIX: Glutamate, NMDA, Agonism radioligand binding (ligand: [3H] CGP-39653). The format is cell membranes, Rattus norvegicus, Wistar, Cerebral cortex, Membrane. Conditions: Not Active = under 50% inhibition at 10 µM.
Experiment [4] in a line: DRUGMATRIX: Calcium Channel Type L, Phenylalkylamine radioligand binding (ligand: [3H] (-)-Desmethoxyverapamil (D-888)). The format is cell membranes, Rattus norvegicus, Wistar, Brain, Membrane. Conditions: Not Active = under 50% inhibition at 10 µM.
Experiment [5] can be described thus: DRUGMATRIX: Glutamate, NMDA, Phencyclidine radioligand binding (ligand: [3H] TCP). The format is cell membranes, Rattus norvegicus, Wistar, Cerebral cortex, Membrane. Conditions: Not Active = under 50% inhibition at 10 µM.
For another experiment, the target named is Melanocortin receptor 3 (Homo sapiens, UniProt P41968). The format is cell membranes, Membrane. Conditions: hek293. Further: in other assays of this panel Not Active means under 50% inhibition at 10 µM.
Experiment [6] concerns the target T1, Alpha-1D adrenergic receptor (Homo sapiens, UniProt P25100). Further: in other assays of this panel Not Active means under 50% inhibition at 10 µM.
T1 sequence (P25100 whole entry): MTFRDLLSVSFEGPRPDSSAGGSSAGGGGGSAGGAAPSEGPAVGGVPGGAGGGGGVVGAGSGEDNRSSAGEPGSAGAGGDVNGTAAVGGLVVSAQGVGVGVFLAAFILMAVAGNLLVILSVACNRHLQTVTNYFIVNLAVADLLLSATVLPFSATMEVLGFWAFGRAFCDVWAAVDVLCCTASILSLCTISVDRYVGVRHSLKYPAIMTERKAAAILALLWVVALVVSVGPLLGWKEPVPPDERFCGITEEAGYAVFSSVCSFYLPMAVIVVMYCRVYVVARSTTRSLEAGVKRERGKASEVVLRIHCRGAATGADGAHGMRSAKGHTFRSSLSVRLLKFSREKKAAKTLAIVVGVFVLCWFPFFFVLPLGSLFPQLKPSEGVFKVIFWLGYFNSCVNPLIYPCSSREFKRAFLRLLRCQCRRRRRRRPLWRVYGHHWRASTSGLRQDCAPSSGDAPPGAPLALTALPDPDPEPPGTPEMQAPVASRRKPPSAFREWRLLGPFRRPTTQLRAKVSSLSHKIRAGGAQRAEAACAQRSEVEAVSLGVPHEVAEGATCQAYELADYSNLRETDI
The format is cell membranes, HEK293, Membrane.

Experiment [7] has as its target T2, 3-hydroxy-3-methylglutaryl-coenzyme A reductase (Homo sapiens, UniProt P04035).
T2 sequence (P04035 whole entry): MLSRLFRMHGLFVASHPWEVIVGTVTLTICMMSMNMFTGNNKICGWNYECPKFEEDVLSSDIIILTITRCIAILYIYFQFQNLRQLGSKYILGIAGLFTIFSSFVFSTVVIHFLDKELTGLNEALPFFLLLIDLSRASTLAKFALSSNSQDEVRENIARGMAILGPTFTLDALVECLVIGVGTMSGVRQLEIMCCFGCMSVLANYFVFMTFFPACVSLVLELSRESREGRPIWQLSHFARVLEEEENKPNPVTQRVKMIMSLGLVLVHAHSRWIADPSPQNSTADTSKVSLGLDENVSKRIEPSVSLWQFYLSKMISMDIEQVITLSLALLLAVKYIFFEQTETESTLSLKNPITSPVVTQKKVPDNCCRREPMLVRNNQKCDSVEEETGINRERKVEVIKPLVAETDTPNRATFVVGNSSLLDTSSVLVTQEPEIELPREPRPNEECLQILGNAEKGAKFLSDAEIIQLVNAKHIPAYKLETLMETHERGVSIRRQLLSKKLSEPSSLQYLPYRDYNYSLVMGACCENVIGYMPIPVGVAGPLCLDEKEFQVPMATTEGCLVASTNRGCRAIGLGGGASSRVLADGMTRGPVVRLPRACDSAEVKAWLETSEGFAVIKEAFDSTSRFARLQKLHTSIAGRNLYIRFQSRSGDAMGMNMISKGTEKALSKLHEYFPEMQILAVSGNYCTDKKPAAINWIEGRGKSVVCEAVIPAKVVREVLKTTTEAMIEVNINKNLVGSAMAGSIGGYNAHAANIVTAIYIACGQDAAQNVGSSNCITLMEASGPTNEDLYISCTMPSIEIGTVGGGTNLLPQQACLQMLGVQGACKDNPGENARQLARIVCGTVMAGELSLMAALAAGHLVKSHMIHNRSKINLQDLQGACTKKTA
More on the design: species or system Escherichia coli.

Experiment [8] can be described thus: DRUGMATRIX: Phosphodiesterase PDE4 enzyme inhibition (substrate: [3H]cAMP + cAMP). Particulars: u-937; Not Active = under 50% inhibition at 10 µM.
The target of the next experiment is T3, Adenosine receptor A1 (Homo sapiens, UniProt P30542).
T3 sequence (P30542 whole entry): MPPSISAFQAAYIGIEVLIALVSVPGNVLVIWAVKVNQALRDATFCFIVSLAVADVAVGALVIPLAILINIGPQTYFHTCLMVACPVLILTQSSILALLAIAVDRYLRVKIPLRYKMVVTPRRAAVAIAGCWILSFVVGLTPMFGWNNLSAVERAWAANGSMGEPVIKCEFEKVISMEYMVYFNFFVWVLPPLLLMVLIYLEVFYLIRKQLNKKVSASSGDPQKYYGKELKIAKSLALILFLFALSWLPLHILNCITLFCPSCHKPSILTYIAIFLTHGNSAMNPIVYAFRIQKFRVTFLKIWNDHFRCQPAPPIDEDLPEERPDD
The format is cell membranes, CHO, Membrane. Conditions: cho.

Experiment [9] concerns the target Mitogen-activated protein kinase 1 (Homo sapiens, UniProt P28482). The experiment is described as follows: DRUGMATRIX: Protein Serine/Threonine Kinase, ERK2 enzyme inhibition (substrate: Myelin Basic Protein). The arrangement: species or system Escherichia coli. Conditions: Not Active = under 50% inhibition at 10 µM.
In a further experiment the target is T4, Interstitial collagenase (Homo sapiens, UniProt P03956).
T4 sequence (P03956 whole entry): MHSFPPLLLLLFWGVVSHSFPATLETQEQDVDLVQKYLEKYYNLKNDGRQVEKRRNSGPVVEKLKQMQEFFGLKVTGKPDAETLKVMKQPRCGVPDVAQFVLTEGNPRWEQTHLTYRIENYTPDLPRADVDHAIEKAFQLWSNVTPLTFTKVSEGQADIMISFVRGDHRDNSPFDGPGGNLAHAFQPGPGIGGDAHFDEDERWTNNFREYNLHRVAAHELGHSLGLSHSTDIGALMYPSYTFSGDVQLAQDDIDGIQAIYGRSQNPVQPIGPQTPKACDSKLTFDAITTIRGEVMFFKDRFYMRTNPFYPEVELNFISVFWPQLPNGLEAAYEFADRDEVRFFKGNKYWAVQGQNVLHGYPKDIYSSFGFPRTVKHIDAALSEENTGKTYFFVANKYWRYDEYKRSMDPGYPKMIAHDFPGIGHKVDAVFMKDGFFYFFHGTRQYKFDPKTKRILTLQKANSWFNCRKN
The format is tissue-based, Rheumatoid synovial fibroblasts.

As a reminder, the IC50 is the concentration that gives 50% inhibition. In general, Ki refers to a dissociation constant, usually derived from enzyme kinetics or from competition with a known ligand.

Sequence of Melanocortin receptor 3 (P41968 whole entry): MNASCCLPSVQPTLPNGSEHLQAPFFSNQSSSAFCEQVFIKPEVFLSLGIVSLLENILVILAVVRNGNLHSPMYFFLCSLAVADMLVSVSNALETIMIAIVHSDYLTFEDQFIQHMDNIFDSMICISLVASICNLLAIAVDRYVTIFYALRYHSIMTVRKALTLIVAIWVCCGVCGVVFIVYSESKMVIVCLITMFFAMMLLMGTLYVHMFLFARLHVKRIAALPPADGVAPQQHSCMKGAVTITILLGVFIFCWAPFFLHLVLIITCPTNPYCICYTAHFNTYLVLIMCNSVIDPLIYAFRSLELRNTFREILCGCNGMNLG
Sequence of Prostaglandin G/H synthase 1 (P23219 whole entry): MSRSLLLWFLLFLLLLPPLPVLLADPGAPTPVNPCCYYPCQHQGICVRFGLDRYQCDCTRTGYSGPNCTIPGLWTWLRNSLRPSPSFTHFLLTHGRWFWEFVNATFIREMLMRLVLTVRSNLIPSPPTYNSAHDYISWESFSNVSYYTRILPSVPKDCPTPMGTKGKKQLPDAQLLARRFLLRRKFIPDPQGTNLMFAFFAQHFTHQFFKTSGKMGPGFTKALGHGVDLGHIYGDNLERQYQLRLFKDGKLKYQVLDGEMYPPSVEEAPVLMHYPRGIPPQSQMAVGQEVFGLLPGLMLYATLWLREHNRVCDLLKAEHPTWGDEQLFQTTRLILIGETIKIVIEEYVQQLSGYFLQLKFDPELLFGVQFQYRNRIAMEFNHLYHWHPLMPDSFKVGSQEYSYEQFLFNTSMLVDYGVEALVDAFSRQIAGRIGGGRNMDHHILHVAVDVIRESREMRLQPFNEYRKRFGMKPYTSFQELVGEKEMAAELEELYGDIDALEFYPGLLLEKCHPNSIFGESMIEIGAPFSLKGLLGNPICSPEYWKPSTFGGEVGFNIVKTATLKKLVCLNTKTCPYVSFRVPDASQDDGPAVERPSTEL
Sequence of Mitogen-activated protein kinase 1 (P28482 whole entry): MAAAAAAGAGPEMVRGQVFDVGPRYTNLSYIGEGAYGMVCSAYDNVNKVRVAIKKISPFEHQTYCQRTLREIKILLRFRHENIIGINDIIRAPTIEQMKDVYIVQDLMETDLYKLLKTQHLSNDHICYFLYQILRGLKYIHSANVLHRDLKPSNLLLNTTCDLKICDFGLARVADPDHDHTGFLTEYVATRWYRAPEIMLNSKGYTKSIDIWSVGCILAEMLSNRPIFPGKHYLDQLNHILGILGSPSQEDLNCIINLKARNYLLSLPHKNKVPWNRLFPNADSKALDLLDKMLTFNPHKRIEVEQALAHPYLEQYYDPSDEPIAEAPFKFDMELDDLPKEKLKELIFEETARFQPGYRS
Sequence of Platelet-activating factor receptor (P25105 whole entry): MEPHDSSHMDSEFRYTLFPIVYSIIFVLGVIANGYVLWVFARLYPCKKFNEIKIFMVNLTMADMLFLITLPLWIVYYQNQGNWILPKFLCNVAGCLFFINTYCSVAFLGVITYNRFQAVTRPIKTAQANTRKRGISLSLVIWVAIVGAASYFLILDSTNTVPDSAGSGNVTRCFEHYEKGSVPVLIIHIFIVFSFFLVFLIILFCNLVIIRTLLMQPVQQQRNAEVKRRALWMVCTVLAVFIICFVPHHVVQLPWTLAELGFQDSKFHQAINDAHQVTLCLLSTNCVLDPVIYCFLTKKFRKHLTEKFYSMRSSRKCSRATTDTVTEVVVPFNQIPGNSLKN
Sequence of D(3) dopamine receptor (P35462 whole entry): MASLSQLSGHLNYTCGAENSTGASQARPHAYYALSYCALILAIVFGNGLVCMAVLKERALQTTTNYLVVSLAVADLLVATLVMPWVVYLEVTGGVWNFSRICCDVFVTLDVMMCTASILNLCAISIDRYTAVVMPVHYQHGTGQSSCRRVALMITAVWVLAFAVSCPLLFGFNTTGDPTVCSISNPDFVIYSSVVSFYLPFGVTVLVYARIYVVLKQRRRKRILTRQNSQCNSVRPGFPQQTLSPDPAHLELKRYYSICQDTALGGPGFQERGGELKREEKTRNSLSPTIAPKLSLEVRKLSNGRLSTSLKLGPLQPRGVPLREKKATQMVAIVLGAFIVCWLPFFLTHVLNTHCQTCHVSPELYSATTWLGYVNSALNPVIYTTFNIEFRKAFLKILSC

Turning to `CC1(C)[C@@H](O[C@H]2O[C@H](C(=O)O)[C@@H](O)[C@H](O)[C@H]2O[C@@H]2O[C@H](C(=O)O)[C@@H](O)[C@H](O)[C@H]2O)CC[C@]2(C)[C@H]3C(=O)C=C4[C@@H]5C[C@@](C)(C(=O)O)CC[C@]5(C)CC[C@@]4(C)[C@]3(C)CC[C@@H]12` [GLYCYRRHIZIN], the IC50 result (on D(3) dopamine receptor (cho); in experiment [1]; in [2]; in experiment [3]; in experiment [4]; in experiment [5]) was “Not Active” each time. The IC50 result (against Melanocortin receptor 3; in [6] (hek293); in [7]; in experiment [8]; at Adenosine receptor A1; in experiment [9]) was “Not Active” in each case. The IC50 entry on Interstitial collagenase is listed as “Not Active”. Further, the Ki entry in experiment [3], in [4], in [5] and in experiment [8] was “Not Active” each time.

For `NCC[C@H](O)C(=O)N[C@@H]1C[C@H](N)[C@@H](O[C@H]2O[C@H](CN)[C@@H](O)[C@H](O)[C@H]2O)[C@H](O)[C@H]1O[C@H]1O[C@H](CO)[C@@H](O)[C@H](N)[C@H]1O` [AMIKACIN], the IC50 entry (on D(3) dopamine receptor (cho); in experiment [1]; in experiment [2]; in [3]; in experiment [4]; in experiment [5]) was “Not Active” in each case. Besides, the IC50 result (at Melanocortin receptor 3; in [6] (hek293); in [7]; in experiment [8]; against Adenosine receptor A1; in experiment [9]) was “Not Active” throughout. Also, the IC50 result against Interstitial collagenase is “Not Active”. In addition, the inhibitory constant (Ki) result in experiment [3], in experiment [4], in experiment [5] and in [8] was “Not Active” in each case.

As for `Cc1[nH]cnc1CN1CCc2c(c3ccccc3n2C)C1=O` [ALOSETRON], the IC50 result (on D(3) dopamine receptor (cho); in experiment [1]; in experiment [2]; in [3]; in experiment [4]; in experiment [5]) was “Not Active” throughout. Further, the IC50 entry (against Melanocortin receptor 3; in [6] (hek293); in experiment [7]; in [8]; against Adenosine receptor A1; in experiment [9]) was “Not Active” in each case. For the same compound, the IC50 entry against Interstitial collagenase was “Not Active”. In addition, the inhibition constant Ki result in [3], in [4], in experiment [5] and in experiment [8] was “Not Active” in each case.

With `CN1C[C@H](C(=O)N[C@]2(C)O[C@@]3(O)[C@@H]4CCCN4C(=O)[C@H](Cc4ccccc4)N3C2=O)C=C2c3cccc4[nH]cc(c34)C[C@H]21` [ERGOTAMINE], the IC50 on D(3) dopamine receptor (read-out: IC50) was 4.31 nM; in experiment [1], “Not Active”; in experiment [2], “Not Active”; in [3], “Not Active”; in [4], “Not Active”; in [5], “Not Active”. Besides, the IC50 result against Melanocortin receptor 3 was “Not Active”; in experiment [6] (read-out: IC50), 49 nM; in experiment [7], “Not Active”; in experiment [8] it was “Not Active”; against Adenosine receptor A1, “Not Active”; in [9] it was “Not Active”. On Interstitial collagenase, the IC50 entry was “Not Active”. In addition, the Ki at D(3) dopamine receptor (read-out: Ki) is 1.46 nM; in experiment [3], “Not Active”; in experiment [4], “Not Active”; in [5], “Not Active”; in experiment [6] (read-out: Ki), 24 nM; in [8], “Not Active”.

As for `CN(C)[C@@H]1C(O)=C(C(N)=O)C(=O)[C@@]2(O)C(O)=C3C(=O)c4c(O)cccc4[C@@](C)(O)[C@H]3[C@H](O)[C@@H]12` [OXYTETRACYCLINE], the IC50 entry (on D(3) dopamine receptor (cho); in [1]; in [2]; in experiment [3]; in experiment [4]; in experiment [5]) was “Not Active” each time. Besides, the IC50 entry (at Melanocortin receptor 3; in experiment [6] (hek293); in experiment [7]; in experiment [8]; against Adenosine receptor A1; in experiment [9]) was “Not Active” in each case. The IC50 entry on Interstitial collagenase is “Not Active”. Besides, the Ki entry in experiment [3], in [4], in experiment [5] and in experiment [8] was “Not Active” in each case.
